Test results from the supplement of paper PMC8617591.

What was measured:
[1] = test system: Mycobacterium tuberculosis Erdman (autoluminescent); experiment: total FIC50 (Loewe) at 50% inhibition, three-drug combination (log2); higher = more antagonistic
Description: (§1)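 DiaMOND equipotent three-drug combination dose responses (10 doses, 1.5- or 2-fold spacing, centred on IC90) against autoluminescent M. tuberculosis Erdman in 8 in vitro models. Read-out is OD600, or luminescence for the intracellular and dormancy models, normalised to untreated wells. Hill-fit Einf, AUC25 and GRinf are potency metrics; FIC50 and FIC90 are total Loewe fractional inhibitory concentrations as log2 (negative = synergy).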

[2] = test system: Mycobacterium tuberculosis Erdman (autoluminescent); experiment: Einf, fitted maximum growth inhibition of three-drug combination (fraction); higher = stronger maximal inhibition
Description: as §1

[3] = test system: Mycobacterium tuberculosis Erdman (autoluminescent); experiment: GRinf, maximum normalised growth rate inhibition (three-drug combination) (unitless (-1 to 1)); higher = less effect (negative = killing)
Description: as §1

[4] = test system: Mycobacterium tuberculosis Erdman (autoluminescent); experiment: AUC25, normalised area under dose response up to IC25 (three-drug combination) (fraction (0-1)); higher = more potent at low dose
Description: as §1

[5] = test system: Mycobacterium tuberculosis Erdman (autoluminescent); experiment: total FIC90 (Loewe) at 90% inhibition, three-drug combination (log2); higher = more antagonistic
Description: as §1

CC(C)/N=c1\cc2n(-c3ccc(Cl)cc3)c3ccccc3nc-2cc1Nc1ccc(Cl)cc1 [clofazimine] + CC[C@@H](CO)NCCN[C@@H](CC)CO [ethambutol] + NNC(=O)c1ccncc1 [isoniazid]
Conditions | AUC25, [4] | Einf, [2] | GRinf, [3] | total FIC50, [1] | total FIC90, [5]
in vitro model: acidic pH 5.7, time point: constant (~7 days, model-specific) | 0.0868 | 0.732 | -0.0169 | 0.498 | –
in vitro model: acidic pH 5.7, time point: terminal (~4-5 doublings, model-specific) | 0.0876 | 0.955 | -0.0829 | 0.678 | 0.618
in vitro model: intracellular J774, time point: constant = terminal | – | 0.988 | -0.375 | – | -0.505

Conditions | AUC25, [4] | Einf, [2] | GRinf, [3] | total FIC50, [1] | total FIC90, [5]
in vitro model: butyrate, time point: constant (~7 days, model-specific) | 0.0914 | 0.946 | -0.098 | 0.523 | –
in vitro model: butyrate, time point: terminal (~4-5 doublings, model-specific) | 0.0804 | 0.976 | -0.12 | 0.504 | 0.513
in vitro model: cholesterol 0.05 mM, time point: constant (~7 days, model-specific) | 0.117 | 0.751 | -0.165 | 0.257 | –
in vitro model: cholesterol 0.05 mM, time point: terminal (~4-5 doublings, model-specific) | 0.126 | 0.852 | -0.135 | 1.57 | –
in vitro model: cholesterol-high 0.2 mM, time point: constant (~7 days, model-specific) | 0.0601 | 0.951 | -0.518 | 0.899 | –
in vitro model: cholesterol-high 0.2 mM, time point: terminal (~4-5 doublings, model-specific) | 0.0945 | 0.998 | -0.932 | 0.577 | 0.985
in vitro model: dormancy (butyrate + nitrate, low O2), time point: constant (~7 days, model-specific) | 0.0906 | 0.807 | 0.507 | 0.0627 | –
in vitro model: dormancy (butyrate + nitrate, low O2), time point: terminal (~4-5 doublings, model-specific) | 0.132 | 0.998 | -0.444 | -0.121 | 0.753
in vitro model: standard 7H9 glycerol, time point: constant = terminal | 0.118 | 0.954 | -0.121 | -0.209 | –
in vitro model: valerate, time point: constant (~7 days, model-specific) | 0.128 | 0.873 | 0.0565 | 0.974 | –
in vitro model: valerate, time point: terminal (~4-5 doublings, model-specific) | 0.0871 | 0.919 | 0.0494 | 0.446 | -0.137

COc1nc2ccc(Br)cc2cc1[C@@H](c1ccccc1)[C@@](O)(CCN(C)C)c1cccc2ccccc12 [bedaquiline] + CC[C@@H](CO)NCCN[C@@H](CC)CO [ethambutol] + COc1c(N2C[C@@H]3CCCN[C@@H]3C2)c(F)cc2c(=O)c(C(=O)O)cn(C3CC3)c12 [moxifloxacin]
Conditions | AUC25, [4] | Einf, [2] | GRinf, [3] | total FIC50, [1] | total FIC90, [5]
in vitro model: acidic pH 5.7, time point: constant (~7 days, model-specific) | 0.0871 | 0.818 | -0.484 | 0.542 | –
in vitro model: acidic pH 5.7, time point: terminal (~4-5 doublings, model-specific) | 0.0798 | 0.968 | -0.239 | 0.896 | 0.318
in vitro model: intracellular J774, time point: constant = terminal | – | 0.951 | -0.177 | – | -0.597

Conditions | AUC25, [4] | Einf, [2] | GRinf, [3] | total FIC50, [1] | total FIC90, [5]
in vitro model: butyrate, time point: constant (~7 days, model-specific) | 0.0669 | 0.943 | -0.107 | 0.634 | –
in vitro model: butyrate, time point: terminal (~4-5 doublings, model-specific) | 0.0565 | 0.976 | -0.091 | 0.608 | 0.135
in vitro model: cholesterol 0.05 mM, time point: constant (~7 days, model-specific) | 0.0787 | 0.746 | -0.304 | 0.605 | –
in vitro model: cholesterol 0.05 mM, time point: terminal (~4-5 doublings, model-specific) | 0.0645 | 0.902 | -0.132 | 1.36 | 0.517
in vitro model: cholesterol-high 0.2 mM, time point: constant (~7 days, model-specific) | 0.0262 | 0.947 | -0.654 | 1.13 | –
in vitro model: cholesterol-high 0.2 mM, time point: terminal (~4-5 doublings, model-specific) | 0.0315 | 1 | -0.729 | 1.33 | 1.07
in vitro model: dormancy (butyrate + nitrate, low O2), time point: constant (~7 days, model-specific) | 0.14 | 0.884 | 0.39 | 1.02 | –
in vitro model: dormancy (butyrate + nitrate, low O2), time point: terminal (~4-5 doublings, model-specific) | 0.114 | 0.987 | -0.126 | 0.343 | 0.644
in vitro model: standard 7H9 glycerol, time point: constant = terminal | 0.0556 | 0.955 | -0.0832 | 0.482 | 0.479
in vitro model: valerate, time point: constant (~7 days, model-specific) | 0.0922 | 0.906 | -0.0299 | 0.726 | –
in vitro model: valerate, time point: terminal (~4-5 doublings, model-specific) | 0.0526 | 0.939 | -0.0195 | 0.757 | 0.289

CC[C@@H](CO)NCCN[C@@H](CC)CO [ethambutol] + NC(=O)c1cnccn1 [pyrazinamide] + CO[C@H]1/C=C/O[C@@]2(C)Oc3c(C)c(O)c4c(O)c(c(/C=N/N5CCN(C)CC5)c(O)c4c3C2=O)NC(=O)/C(C)=C\C=C\[C@H](C)[C@H](O)[C@@H](C)[C@@H](O)[C@@H](C)[C@H](OC(C)=O)[C@@H]1C [rifampicin]
Conditions | AUC25, [4] | Einf, [2] | GRinf, [3] | total FIC50, [1] | total FIC90, [5]
in vitro model: acidic pH 5.7, time point: constant (~7 days, model-specific) | 0.0703 | 0.91 | -0.349 | -0.177 | –
in vitro model: acidic pH 5.7, time point: terminal (~4-5 doublings, model-specific) | 0.0348 | 0.982 | -0.218 | 0.428 | -0.924
in vitro model: intracellular J774, time point: constant = terminal | – | 0.966 | -0.396 | – | -2.06

Conditions | AUC25, [4] | Einf, [2] | GRinf, [3] | total FIC50, [1] | total FIC90, [5]
in vitro model: butyrate, time point: constant (~7 days, model-specific) | 0.0895 | 0.919 | 0.0103 | 0.151 | –
in vitro model: butyrate, time point: terminal (~4-5 doublings, model-specific) | 0.0793 | 0.964 | 0.024 | 0.114 | -0.38
in vitro model: cholesterol 0.05 mM, time point: constant (~7 days, model-specific) | 0.089 | 0.596 | 0.0152 | – | –
in vitro model: cholesterol 0.05 mM, time point: terminal (~4-5 doublings, model-specific) | 0.105 | 0.954 | -0.297 | 1.25 | –
in vitro model: cholesterol-high 0.2 mM, time point: constant (~7 days, model-specific) | 0.0452 | 0.964 | -0.34 | 1.12 | –
in vitro model: cholesterol-high 0.2 mM, time point: terminal (~4-5 doublings, model-specific) | 0.043 | 0.995 | -0.69 | 1.15 | 0.828
in vitro model: dormancy (butyrate + nitrate, low O2), time point: constant (~7 days, model-specific) | 0.134 | 0.906 | 0.291 | -1.12 | –
in vitro model: dormancy (butyrate + nitrate, low O2), time point: terminal (~4-5 doublings, model-specific) | 0.0829 | 0.989 | -0.155 | -0.532 | 0.414
in vitro model: standard 7H9 glycerol, time point: constant = terminal | 0.0436 | 0.897 | 0.134 | 0.0958 | –
in vitro model: valerate, time point: constant (~7 days, model-specific) | 0.0382 | 0.854 | 0.143 | 0.23 | –
in vitro model: valerate, time point: terminal (~4-5 doublings, model-specific) | 0.0278 | 0.92 | 0.0943 | 0.205 | -0.873

CC(C)/N=c1\cc2n(-c3ccc(Cl)cc3)c3ccccc3nc-2cc1Nc1ccc(Cl)cc1 [clofazimine] + CC[C@@H](CO)NCCN[C@@H](CC)CO [ethambutol] + CC(=O)NC[C@H]1CN(c2ccc(N3CCOCC3)c(F)c2)C(=O)O1 [linezolid]
Conditions | AUC25, [4] | Einf, [2] | GRinf, [3] | total FIC50, [1] | total FIC90, [5]
in vitro model: acidic pH 5.7, time point: constant (~7 days, model-specific) | 0.105 | 0.811 | -0.393 | 0.0935 | –
in vitro model: acidic pH 5.7, time point: terminal (~4-5 doublings, model-specific) | 0.0957 | 0.963 | -0.297 | 0.906 | 0.401
in vitro model: intracellular J774, time point: constant = terminal | – | 1 | -0.815 | – | 0.836

Conditions | AUC25, [4] | Einf, [2] | GRinf, [3] | total FIC50, [1] | total FIC90, [5]
in vitro model: butyrate, time point: constant (~7 days, model-specific) | 0.11 | 0.96 | -0.165 | 0.534 | –
in vitro model: butyrate, time point: terminal (~4-5 doublings, model-specific) | 0.0792 | 0.977 | -0.123 | 0.703 | 0.483
in vitro model: cholesterol 0.05 mM, time point: constant (~7 days, model-specific) | 0.148 | 0.746 | -0.203 | – | –
in vitro model: cholesterol 0.05 mM, time point: terminal (~4-5 doublings, model-specific) | 0.165 | 0.917 | -0.514 | -0.786 | –
in vitro model: cholesterol-high 0.2 mM, time point: constant (~7 days, model-specific) | 0.129 | 0.925 | -1 | 0.0764 | –
in vitro model: cholesterol-high 0.2 mM, time point: terminal (~4-5 doublings, model-specific) | 0.125 | 1 | -0.967 | -0.259 | 0.74
in vitro model: dormancy (butyrate + nitrate, low O2), time point: constant (~7 days, model-specific) | 0.0953 | 0.783 | 0.496 | 0.231 | –
in vitro model: dormancy (butyrate + nitrate, low O2), time point: terminal (~4-5 doublings, model-specific) | 0.0972 | 0.963 | -0.701 | 0.197 | 0.279
in vitro model: standard 7H9 glycerol, time point: constant = terminal | 0.122 | 0.949 | -0.0541 | 0.243 | –
in vitro model: valerate, time point: constant (~7 days, model-specific) | 0.11 | 0.869 | -0.282 | 0.664 | –
in vitro model: valerate, time point: terminal (~4-5 doublings, model-specific) | 0.0648 | 0.881 | -0.0657 | 0.302 | -0.133
